Test results as given in BigSolDB 2.1.

O=C(O)CCCc1c[nH]c2ccccc12
solubility (mole fraction)
Conditions	283.15 K	288.15 K	293.15 K	298.15 K	303.15 K	308.15 K	313.15 K	318.15 K	323.15 K
in 2-butanone	0.123	0.139	0.152	0.168	0.185	0.198	0.218	0.24	0.264
in acetone	0.22	0.24	0.257	0.274	0.291	0.315	0.339	0.365	0.399
in acetonitrile	0.0411	0.0531	0.0654	0.0814	0.104	0.123	0.155	0.192	0.256
in dimethyl carbonate	0.0194	0.022	0.0287	0.0354	0.0453	0.0535	0.0644	0.0827	0.101
in ethanol	0.048	0.0557	0.0642	0.0753	0.0886	0.1	0.116	0.141	0.171
in ethyl acetate	0.049	0.0582	0.0689	0.0808	0.0914	0.103	0.122	0.145	0.17
in ethyl lactate	0.101	0.106	0.117	0.128	0.14	0.151	0.165	0.19	0.22
in isobutanol	0.0213	0.0253	0.0315	0.0379	0.0477	0.0581	0.0697	0.0857	0.102
in isobutyl acetate	0.0355	0.0429	0.0498	0.0572	0.0649	0.0736	0.0848	0.0958	0.11
in isopentanol	0.0309	0.0348	0.0412	0.0505	0.0601	0.0725	0.0858	0.0985	0.116
in isopropanol	0.0406	0.0494	0.0599	0.0724	0.0859	0.0984	0.112	0.128	0.143
in isopropyl acetate	0.0492	0.0628	0.0711	0.0813	0.0905	0.101	0.11	0.124	0.149
in methanol	0.0481	0.0562	0.0656	0.0777	0.0922	0.104	0.123	0.153	0.181
in methyl acetate	0.0573	0.0623	0.0701	0.0812	0.0909	0.106	0.126	0.154	0.19
in n-butanol	0.0362	0.0422	0.0495	0.0582	0.0688	0.0786	0.0961	0.112	0.134
in n-butyl acetate	0.0582	0.0645	0.0726	0.0797	0.0885	0.0977	0.112	0.129	0.141
in n-pentanol	0.0362	0.0408	0.0486	0.058	0.0674	0.0764	0.0929	0.108	0.124
in n-propanol	0.0385	0.0446	0.0534	0.0605	0.0727	0.0863	0.0994	0.112	0.139
in sec-butanol	0.0417	0.0486	0.0582	0.0692	0.0829	0.0964	0.111	0.13	0.163
